Tests used:
Assay in all cases: relative viability (nuclei count vs DMSO), 5 days (fraction); higher = more cells survive
Doramapimod + Linsitinib = compound: Cc1ccc(-n2nc(C(C)(C)C)cc2NC(=O)Nc2ccc(OCCN3CCOCC3)c3ccccc23)cc1 [Doramapimod] + C[C@]1(O)C[C@@H](c2nc(-c3ccc4ccc(-c5ccccc5)nc4c3)c3c(N)nccn32)C1 [Linsitinib] (partner 1 µM)
Method in brief: (§1)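 The day after seeding in 1536-well plates, lung cancer cell lines were treated by pin tool with a single drug, or with a fixed anchor-drug dose together with five library-drug doses (not always all listed) in √10 steps. After 5 days, a combined fix-and-stain solution (final 0.05% Triton X-100, 1% formaldehyde, 1 ug/ml Hoechst) was added. Nuclei counted on 4× images gave relative viability as treated counts over vehicle counts, reported as the median of duplicate plates.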

RAF265 + Phenformin = compound: Cn1c(Nc2ccc(C(F)(F)F)cc2)nc2cc(Oc3ccnc(-c4ncc(C(F)(F)F)[nH]4)c3)ccc21 [RAF265] + N=C(N)NC(=N)NCCc1ccccc1 [Phenformin] (partner 250 µM)
Method in brief: as §1

IPA-3 + Vorinostat = compound: C1=CC=C2C(=C1)C=CC(=C2SSC3=C(C=CC4=CC=CC=C43)O)O [IPA-3] + O=C(CCCCCCC(=O)Nc1ccccc1)NO [Vorinostat] (partner 1 µM)
Method in brief: as §1

IPA-3 + Tozasertib = compound: C1=CC=C2C(=C1)C=CC(=C2SSC3=C(C=CC4=CC=CC=C43)O)O [IPA-3] + Cc1cc(Nc2cc(N3CCN(C)CC3)nc(Sc3ccc(NC(=O)C4CC4)cc3)n2)n[nH]1 [Tozasertib] (partner 0.1 µM)
Method in brief: as §1

Cell Line: COR-L 105
- relative viability (Doramapimod + Linsitinib; first compound 0.02 µM): 0.968
- relative viability (Doramapimod + Linsitinib; first compound 0.06325 µM): 0.94
- relative viability (Doramapimod + Linsitinib; first compound 0.2 µM): 0.853
- relative viability (Doramapimod + Linsitinib; first compound 0.6325 µM): 1.01
- relative viability (Doramapimod + Linsitinib; first compound 2 µM): 0.735
- relative viability (RAF265 + Phenformin; first compound 0.01 µM): 0.463
- relative viability (RAF265 + Phenformin; first compound 0.03162 µM): 0.621
- relative viability (RAF265 + Phenformin; first compound 0.1 µM): 0.457
- relative viability (RAF265 + Phenformin; first compound 0.3162 µM): 0.3
- relative viability (RAF265 + Phenformin; first compound 1 µM): 0.358
- relative viability (IPA-3 + Vorinostat; first compound 0.2 µM): 1.08
- relative viability (IPA-3 + Vorinostat; first compound 0.6325 µM): 0.543
- relative viability (IPA-3 + Vorinostat; first compound 2 µM): 0.907
- relative viability (IPA-3 + Vorinostat; first compound 6.325 µM): 0.995
- relative viability (IPA-3 + Vorinostat; first compound 20 µM): 0.79
- relative viability (IPA-3 + Tozasertib; first compound 0.2 µM): 0.335
- relative viability (IPA-3 + Tozasertib; first compound 0.6325 µM): 0.463
- relative viability (IPA-3 + Tozasertib; first compound 2 µM): 0.32
- relative viability (IPA-3 + Tozasertib; first compound 6.325 µM): 0.403
- relative viability (IPA-3 + Tozasertib; first compound 20 µM): 0.342

Cell Line: EKVX
- relative viability (Doramapimod + Linsitinib; first compound 0.02 µM): 1.03
- relative viability (Doramapimod + Linsitinib; first compound 0.06325 µM): 0.972
- relative viability (Doramapimod + Linsitinib; first compound 0.2 µM): 0.902
- relative viability (Doramapimod + Linsitinib; first compound 0.6325 µM): 1.15
- relative viability (Doramapimod + Linsitinib; first compound 2 µM): 0.95
- relative viability (RAF265 + Phenformin; first compound 0.01 µM): 0.266
- relative viability (RAF265 + Phenformin; first compound 0.03162 µM): 0.249
- relative viability (RAF265 + Phenformin; first compound 0.1 µM): 0.248
- relative viability (RAF265 + Phenformin; first compound 0.3162 µM): 0.186
- relative viability (RAF265 + Phenformin; first compound 1 µM): 0.19
- relative viability (IPA-3 + Vorinostat; first compound 0.2 µM): 0.801
- relative viability (IPA-3 + Vorinostat; first compound 0.6325 µM): 0.693
- relative viability (IPA-3 + Vorinostat; first compound 2 µM): 0.83
- relative viability (IPA-3 + Vorinostat; first compound 6.325 µM): 0.793
- relative viability (IPA-3 + Vorinostat; first compound 20 µM): 0.763
- relative viability (IPA-3 + Tozasertib; first compound 0.2 µM): 0.463
- relative viability (IPA-3 + Tozasertib; first compound 0.6325 µM): 0.42
- relative viability (IPA-3 + Tozasertib; first compound 2 µM): 0.447
- relative viability (IPA-3 + Tozasertib; first compound 6.325 µM): 0.375
- relative viability (IPA-3 + Tozasertib; first compound 20 µM): 0.422

Cell Line: EMC-BAC-2
- relative viability (Doramapimod + Linsitinib; first compound 0.02 µM): 0.793
- relative viability (Doramapimod + Linsitinib; first compound 0.06325 µM): 0.821
- relative viability (Doramapimod + Linsitinib; first compound 0.2 µM): 0.789
- relative viability (Doramapimod + Linsitinib; first compound 0.6325 µM): 0.86
- relative viability (Doramapimod + Linsitinib; first compound 2 µM): 0.834
- relative viability (RAF265 + Phenformin; first compound 0.01 µM): 0.544
- relative viability (RAF265 + Phenformin; first compound 0.03162 µM): 0.457
- relative viability (RAF265 + Phenformin; first compound 0.1 µM): 0.339
- relative viability (RAF265 + Phenformin; first compound 0.3162 µM): 0.336
- relative viability (RAF265 + Phenformin; first compound 1 µM): 0.125
- relative viability (IPA-3 + Vorinostat; first compound 0.2 µM): 0.436
- relative viability (IPA-3 + Vorinostat; first compound 0.6325 µM): 0.556
- relative viability (IPA-3 + Vorinostat; first compound 2 µM): 0.504
- relative viability (IPA-3 + Vorinostat; first compound 6.325 µM): 0.428
- relative viability (IPA-3 + Vorinostat; first compound 20 µM): 0.491
- relative viability (IPA-3 + Tozasertib; first compound 0.2 µM): 0.279
- relative viability (IPA-3 + Tozasertib; first compound 0.6325 µM): 0.296
- relative viability (IPA-3 + Tozasertib; first compound 2 µM): 0.312
- relative viability (IPA-3 + Tozasertib; first compound 6.325 µM): 0.303
- relative viability (IPA-3 + Tozasertib; first compound 20 µM): 0.269

Cell Line: EPLC-272H
- relative viability (Doramapimod + Linsitinib; first compound 0.02 µM): 1.1
- relative viability (Doramapimod + Linsitinib; first compound 0.06325 µM): 1.02
- relative viability (Doramapimod + Linsitinib; first compound 0.2 µM): 1.07
- relative viability (Doramapimod + Linsitinib; first compound 0.6325 µM): 1.23
- relative viability (Doramapimod + Linsitinib; first compound 2 µM): 1.01
- relative viability (RAF265 + Phenformin; first compound 0.01 µM): 0.267
- relative viability (RAF265 + Phenformin; first compound 0.03162 µM): 0.323
- relative viability (RAF265 + Phenformin; first compound 0.1 µM): 0.261
- relative viability (RAF265 + Phenformin; first compound 0.3162 µM): 0.249
- relative viability (RAF265 + Phenformin; first compound 1 µM): 0.206
- relative viability (IPA-3 + Vorinostat; first compound 0.2 µM): 0.397
- relative viability (IPA-3 + Vorinostat; first compound 0.6325 µM): 0.468
- relative viability (IPA-3 + Vorinostat; first compound 2 µM): 0.366
- relative viability (IPA-3 + Vorinostat; first compound 6.325 µM): 0.482
- relative viability (IPA-3 + Vorinostat; first compound 20 µM): 0.546
- relative viability (IPA-3 + Tozasertib; first compound 0.2 µM): 0.441
- relative viability (IPA-3 + Tozasertib; first compound 0.6325 µM): 0.338
- relative viability (IPA-3 + Tozasertib; first compound 2 µM): 0.332
- relative viability (IPA-3 + Tozasertib; first compound 6.325 µM): 0.311
- relative viability (IPA-3 + Tozasertib; first compound 20 µM): 0.506

Cell Line: H3255
- relative viability (Doramapimod + Linsitinib; first compound 0.02 µM): 1.02
- relative viability (Doramapimod + Linsitinib; first compound 0.06325 µM): 0.908
- relative viability (Doramapimod + Linsitinib; first compound 0.2 µM): 0.913
- relative viability (Doramapimod + Linsitinib; first compound 0.6325 µM): 0.97
- relative viability (Doramapimod + Linsitinib; first compound 2 µM): 0.871
- relative viability (RAF265 + Phenformin; first compound 0.01 µM): 0.358
- relative viability (RAF265 + Phenformin; first compound 0.03162 µM): 0.378
- relative viability (RAF265 + Phenformin; first compound 0.1 µM): 0.372
- relative viability (RAF265 + Phenformin; first compound 1 µM): 0.349
- relative viability (IPA-3 + Vorinostat; first compound 0.2 µM): 1.05
- relative viability (IPA-3 + Vorinostat; first compound 0.6325 µM): 0.759
- relative viability (IPA-3 + Vorinostat; first compound 2 µM): 0.801
- relative viability (IPA-3 + Vorinostat; first compound 6.325 µM): 0.791
- relative viability (IPA-3 + Vorinostat; first compound 20 µM): 0.967
- relative viability (IPA-3 + Tozasertib; first compound 0.2 µM): 0.595
- relative viability (IPA-3 + Tozasertib; first compound 0.6325 µM): 0.655
- relative viability (IPA-3 + Tozasertib; first compound 2 µM): 0.652
- relative viability (IPA-3 + Tozasertib; first compound 6.325 µM): 0.602
- relative viability (IPA-3 + Tozasertib; first compound 20 µM): 0.741

Cell Line: HARA
- relative viability (Doramapimod + Linsitinib; first compound 0.02 µM): 0.943
- relative viability (Doramapimod + Linsitinib; first compound 0.06325 µM): 0.901
- relative viability (Doramapimod + Linsitinib; first compound 0.2 µM): 0.904
- relative viability (Doramapimod + Linsitinib; first compound 0.6325 µM): 0.987
- relative viability (Doramapimod + Linsitinib; first compound 2 µM): 0.805
- relative viability (RAF265 + Phenformin; first compound 0.01 µM): 0.498
- relative viability (RAF265 + Phenformin; first compound 0.03162 µM): 0.345
- relative viability (RAF265 + Phenformin; first compound 0.1 µM): 0.445
- relative viability (RAF265 + Phenformin; first compound 0.3162 µM): 0.39
- relative viability (RAF265 + Phenformin; first compound 1 µM): 0.329
- relative viability (IPA-3 + Vorinostat; first compound 0.2 µM): 0.48
- relative viability (IPA-3 + Vorinostat; first compound 0.6325 µM): 0.509
- relative viability (IPA-3 + Vorinostat; first compound 2 µM): 0.421
- relative viability (IPA-3 + Vorinostat; first compound 6.325 µM): 0.653
- relative viability (IPA-3 + Vorinostat; first compound 20 µM): 0.447
- relative viability (IPA-3 + Tozasertib; first compound 0.2 µM): 0.133
- relative viability (IPA-3 + Tozasertib; first compound 0.6325 µM): 0.132
- relative viability (IPA-3 + Tozasertib; first compound 2 µM): 0.153
- relative viability (IPA-3 + Tozasertib; first compound 6.325 µM): 0.485
- relative viability (IPA-3 + Tozasertib; first compound 20 µM): 0.118

Cell Line: HCC-15
- relative viability (Doramapimod + Linsitinib; first compound 0.02 µM): 0.846
- relative viability (Doramapimod + Linsitinib; first compound 0.06325 µM): 0.863
- relative viability (Doramapimod + Linsitinib; first compound 0.2 µM): 0.889
- relative viability (Doramapimod + Linsitinib; first compound 0.6325 µM): 0.944
- relative viability (Doramapimod + Linsitinib; first compound 2 µM): 0.806
- relative viability (RAF265 + Phenformin; first compound 0.01 µM): 0.486
- relative viability (RAF265 + Phenformin; first compound 0.03162 µM): 0.483
- relative viability (RAF265 + Phenformin; first compound 0.1 µM): 0.464
- relative viability (RAF265 + Phenformin; first compound 0.3162 µM): 0.355
- relative viability (RAF265 + Phenformin; first compound 1 µM): 0.316
- relative viability (IPA-3 + Vorinostat; first compound 0.2 µM): 0.929
- relative viability (IPA-3 + Vorinostat; first compound 0.6325 µM): 0.937
- relative viability (IPA-3 + Vorinostat; first compound 2 µM): 0.894
- relative viability (IPA-3 + Vorinostat; first compound 6.325 µM): 0.804
- relative viability (IPA-3 + Vorinostat; first compound 20 µM): 0.975
- relative viability (IPA-3 + Tozasertib; first compound 0.2 µM): 0.61
- relative viability (IPA-3 + Tozasertib; first compound 0.6325 µM): 0.367
- relative viability (IPA-3 + Tozasertib; first compound 2 µM): 0.457
- relative viability (IPA-3 + Tozasertib; first compound 6.325 µM): 0.431
- relative viability (IPA-3 + Tozasertib; first compound 20 µM): 0.442

Cell Line: HCC-44
- relative viability (Doramapimod + Linsitinib; first compound 0.02 µM): 0.662
- relative viability (Doramapimod + Linsitinib; first compound 0.06325 µM): 0.669
- relative viability (Doramapimod + Linsitinib; first compound 0.2 µM): 0.675
- relative viability (Doramapimod + Linsitinib; first compound 0.6325 µM): 0.634
- relative viability (Doramapimod + Linsitinib; first compound 2 µM): 0.626
- relative viability (RAF265 + Phenformin; first compound 0.01 µM): 0.183
- relative viability (RAF265 + Phenformin; first compound 0.03162 µM): 0.241
- relative viability (RAF265 + Phenformin; first compound 0.1 µM): 0.209
- relative viability (RAF265 + Phenformin; first compound 0.3162 µM): 0.199
- relative viability (RAF265 + Phenformin; first compound 1 µM): 0.19
- relative viability (IPA-3 + Vorinostat; first compound 0.2 µM): 1.03
- relative viability (IPA-3 + Vorinostat; first compound 0.6325 µM): 1.03
- relative viability (IPA-3 + Vorinostat; first compound 2 µM): 1.04
- relative viability (IPA-3 + Vorinostat; first compound 6.325 µM): 1.07
- relative viability (IPA-3 + Vorinostat; first compound 20 µM): 0.986
- relative viability (IPA-3 + Tozasertib; first compound 0.2 µM): 1.09
- relative viability (IPA-3 + Tozasertib; first compound 0.6325 µM): 0.953
- relative viability (IPA-3 + Tozasertib; first compound 2 µM): 0.996
- relative viability (IPA-3 + Tozasertib; first compound 6.325 µM): 0.71
- relative viability (IPA-3 + Tozasertib; first compound 20 µM): 0.93
